Data set [1] addresses T1, Solute carrier organic anion transporter family member 1B1 (Homo sapiens, UniProt Q9Y6L6).
T1 sequence (Q9Y6L6 whole entry): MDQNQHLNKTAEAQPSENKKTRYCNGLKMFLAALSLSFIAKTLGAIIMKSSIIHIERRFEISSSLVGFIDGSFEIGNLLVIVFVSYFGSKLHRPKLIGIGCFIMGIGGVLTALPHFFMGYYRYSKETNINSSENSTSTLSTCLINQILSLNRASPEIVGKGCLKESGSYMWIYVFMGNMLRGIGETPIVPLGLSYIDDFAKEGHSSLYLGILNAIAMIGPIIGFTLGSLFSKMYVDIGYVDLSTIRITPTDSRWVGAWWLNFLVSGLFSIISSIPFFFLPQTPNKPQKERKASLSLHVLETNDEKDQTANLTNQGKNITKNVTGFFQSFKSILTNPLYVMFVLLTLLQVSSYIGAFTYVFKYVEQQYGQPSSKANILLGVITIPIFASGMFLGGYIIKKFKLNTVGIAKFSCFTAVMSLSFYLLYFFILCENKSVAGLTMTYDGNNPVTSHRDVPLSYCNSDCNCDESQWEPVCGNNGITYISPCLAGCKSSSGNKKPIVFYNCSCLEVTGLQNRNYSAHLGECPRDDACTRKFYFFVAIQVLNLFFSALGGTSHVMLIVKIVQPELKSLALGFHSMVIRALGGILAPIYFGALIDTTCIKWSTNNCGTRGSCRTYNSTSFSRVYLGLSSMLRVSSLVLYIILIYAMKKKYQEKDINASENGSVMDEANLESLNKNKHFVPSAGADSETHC
Conditions: chinese hamster, cho, 10 µM.

The target in data set [2] is T2, Solute carrier organic anion transporter family member 1B3 (Homo sapiens, UniProt Q9NPD5).
T2 sequence (Q9NPD5 whole entry): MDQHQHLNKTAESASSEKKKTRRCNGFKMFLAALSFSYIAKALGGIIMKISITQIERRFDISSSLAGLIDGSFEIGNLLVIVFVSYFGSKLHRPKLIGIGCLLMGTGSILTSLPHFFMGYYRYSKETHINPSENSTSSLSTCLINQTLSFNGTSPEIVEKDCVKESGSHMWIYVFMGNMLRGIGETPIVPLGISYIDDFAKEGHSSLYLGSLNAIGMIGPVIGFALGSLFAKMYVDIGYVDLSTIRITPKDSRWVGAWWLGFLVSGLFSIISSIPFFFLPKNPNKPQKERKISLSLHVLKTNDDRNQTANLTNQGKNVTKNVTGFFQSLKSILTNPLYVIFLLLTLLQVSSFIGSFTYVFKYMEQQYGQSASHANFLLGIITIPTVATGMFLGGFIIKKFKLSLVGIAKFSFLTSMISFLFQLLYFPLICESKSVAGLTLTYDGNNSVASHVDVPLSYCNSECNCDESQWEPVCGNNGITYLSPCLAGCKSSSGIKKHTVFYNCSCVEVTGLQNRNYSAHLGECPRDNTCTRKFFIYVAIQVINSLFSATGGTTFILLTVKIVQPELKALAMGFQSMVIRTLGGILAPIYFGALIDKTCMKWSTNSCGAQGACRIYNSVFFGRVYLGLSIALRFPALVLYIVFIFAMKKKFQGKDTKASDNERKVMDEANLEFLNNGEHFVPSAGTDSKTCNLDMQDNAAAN
Particulars: chinese hamster, cho, 10 µM.

Residues, ends and D or L forms follow the SMILES beside them.

As a reminder, the residual activity is the signal under treatment as a percentage of the control signal.

Take `CC(C)(S)[C@@H](N)C(=O)O` [PENICILLAMINE]: the figures for the residual activity in data set [1] and in data set [2] were 100.4% and 124%, respectively.
For `C=C(C)C1(O)OC(=O)C=C1OC` (stereo unspecified) [PENICILLIC ACID], the residual activity in data set [1] is on record as 110.4%; in data set [2] it was 96.2%.
For `CC1(C)S[C@@H]2[C@H](NC(=O)COc3ccccc3)C(=O)N2[C@H]1C(=O)[O-].[K+]` [PENICILLIN V POTASSIUM] the same measures were 91.66% and 108.8%.
For `Oc1c(Cl)c(Cl)c(Cl)c(Cl)c1Cl` [PENTACHLOROPHENOL] the same measures were 19.96% and 40.68%.
For the molecule `CCCC(C)C1(CC)C(=O)NC(=O)NC1=O` (stereo unspecified) [PENTOBARBITAL], the residual activity in data set [1] is recorded as 94.35%; in data set [2], 94.07%.
For `CC(C)=CCOc1c2occc2cc2ccc(=O)oc12` [PENTOSALEN], in that order: 222.8% and 131.4%.
Consider `CC(=O)CCCCn1c(=O)c2c(ncn2C)n(C)c1=O` [PENTOXIFYLLINE], for which the figures for the residual activity in data set [1] and in data set [2] were 77.22% and 79.59%, respectively.
For `COc1ccc(C(C)=O)c(OC)c1` [PEONOL METHYL ETHER] the same measures were 105.9% and 99.54%.
With `CCCN1C[C@H](CSC)C[C@@H]2c3cccc4[nH]cc(c34)C[C@H]21.CS(=O)(=O)O` [PERGOLIDE MESYLATE], the residual activity in data set [1] is listed as 90.15%; in data set [2] it was 85.27%.
For `C1CCC(C(CC2CCCCN2)C2CCCCC2)CC1.O=C(O)/C=C\C(=O)O` (stereo unspecified) [PERHEXILINE MALEATE], in that order: 68.81% and 92.29%.
For `N#Cc1ccc2c(c1)N(CCCN1CCC(O)CC1)c1ccccc1S2` [PERICIAZINE] the same measures were 132.5% and 117.1%.
For `C=C(C)[C@H]1CC=C(C(=O)O)CC1` [PERILLIC ACID (-)], in that order: 102.2% and 105%.
As for `C=C(C)[C@@H]1CC=C(CO)CC1` [PERILLYL ALCOHOL], the residual activity is recorded as 84.39% in data set [1] and 91.29% in data set [2].
For `CC(C)(C)N.CCC[C@H](N[C@@H](C)C(=O)N1[C@H](C(=O)O)C[C@@H]2CCCC[C@@H]21)C(=O)OCC` [PERINDOPRIL ERBUMINE] the same measures were 107.5% and 81.39%.
For `OCCN1CCN(CCCN2c3ccccc3Sc3ccc(Cl)cc32)CC1` [PERPHENAZINE] the same measures were 130% and 113.3%.
As to `OCC(O)C(O)C(O)C(O)C(O)CO` (stereo unspecified) [PERSEITOL], the residual activity in data set [1] came to 60.19%; in data set [2], 73.5%.
For `CO[C@H]1[C@H](O)[C@H](O[C@H]2CC[C@@]3(C=O)[C@H](CC[C@@H]4[C@@H]3CC[C@]3(C)[C@@H](C5=CC(=O)OC5)CC[C@]43O)C2)O[C@@H](C)[C@@H]1O` [PERUVOSIDE] the same measures were 62.43% and 112.7%.
Take `COc1c(C(C)C)oc2cc3oc(=O)ccc3cc12` [PEUCEDANIN]: the residual activity amounted to 101.3% in data set [1] and 105.2% in data set [2].
As for `CC(C)=CCc1c(O)cc2oc(C)cc(=O)c2c1O` [PEUCENIN], the results for the residual activity in data set [1] and in data set [2] were 137.1% and 169%, respectively.
For the molecule `NC(=O)NC(=O)Cc1ccccc1` [PHENACEMIDE], the residual activity in data set [1] is recorded as 93.72%; in data set [2], 104.7%.
Turning to `CCOc1ccc(NC(C)=O)cc1` [PHENACETIN], the residual activity in data set [1] turned out to be 55.67%; in data set [2], 98.3%.
For `Cl.NCC(=O)c1ccccc1` [PHENACYLAMINE HYDROCHLORIDE] the same measures were 77.38% and 95.9%.
For `Cl.Nc1ccc(/N=N/c2ccccc2)c(N)n1` [PHENAZOPYRIDINE HYDROCHLORIDE] the same measures were 115.4% and 115.3%.
For `NNCCc1ccccc1.O=S(=O)(O)O` [PHENELZINE SULFATE] the same measures were 91.37% and 110.5%.
Consider `CC(Oc1ccccc1)C(=O)N[C@@H]1C(=O)N2[C@@H]1SC(C)(C)[C@@H]2C(=O)[O-].[K+]` (stereo partly specified) [PHENETHICILLIN POTASSIUM], for which the residual activity in data set [1] is on record as 83.14%; in data set [2], 90.72%.
For `O=C1c2ccccc2C(=O)C1c1ccccc1` [PHENINDIONE] the same measures were 89.42% and 128.9%.
For `CN(C)CCC(c1ccccc1)c1ccccn1.O=C(O)/C=C\C(=O)O` (stereo unspecified) [PHENIRAMINE MALEATE] the same measures were 72.53% and 103.2%.
For `O=C1OC(c2ccc(O)cc2)(c2ccc(O)cc2)c2ccccc21` [PHENOLPHTHALEIN], in that order: 20.62% and 37.96%.
For the molecule `CC(C)=CC1C(C(=O)OCc2cccc(Oc3ccccc3)c2)C1(C)C` (stereo unspecified) [PHENOTHRIN], the results for the residual activity in data set [1] and in data set [2] were 157.5% and 107.3%, respectively.
For the molecule `CC(COc1ccccc1)N(CCCl)Cc1ccccc1.Cl` (stereo unspecified) [PHENOXYBENZAMINE HYDROCHLORIDE], the residual activity is given as 101.5% in data set [1] and 88.73% in data set [2].
`Cc1ccc(N(CC2=NCCN2)c2cccc(O)c2)cc1.Cl` [PHENTOLAMINE HYDROCHLORIDE]: the residual activity in data set [1] is on record as 85.39%; in data set [2] it was 86.01%.
As to `O=C(Cc1ccccc1)NO` [PHENYLACETOHYDROXAMIC ACID], the residual activity in data set [1] was 58.46%; in data set [2], 75.25%.
For `N[C@@H](Cc1ccccc1)C(=O)N[C@@H](Cc1ccc(O)cc1)C(=O)O` [PHENYLALANYLTYROSINE] (H-Phe-Tyr-OH) the same measures were 78.59% and 68.6%.
Take `CNC[C@H](O)c1cccc(O)c1.Cl` [PHENYLEPHRINE HYDROCHLORIDE]: the residual activity was determined as 91.9% in data set [1] and 106.2% in data set [2].
Turning to `O=C1N=C([O-])NC1(c1ccccc1)c1ccccc1.[Na+]` [PHENYTOIN SODIUM], the residual activity is given as 95.94% in data set [1] and 97.47% in data set [2].
Consider `O=C(CCc1ccc(O)cc1)c1c(O)cc(O)cc1O` [PHLORETIN], for which the values for the residual activity in data set [1] and in data set [2] were 83.5% and 98.4%, respectively.
For `O=C(CCc1ccc(O)cc1)c1c(O)cc(O)cc1O[C@@H]1O[C@H](CO)[C@@H](O)[C@H](O)[C@H]1O` [PHLORIZIN], in that order: 50.32% and 106.3%.
Turning to `CCOP(=S)(OCC)SCSCC` [PHORATE], the residual activity in data set [1] turned out to be 102.7%; in data set [2], 107.3%.
For `CCOP(=S)(OCC)SCn1c(=O)oc2cc(Cl)ccc21` [PHOSALONE], in that order: 116.2% and 124%.
For `O=C(O)c1ccccc1C(=O)Nc1ccc(S(=O)(=O)Nc2nccs2)cc1` [PHTHALYLSULFATHIAZOLE] the same measures were 115.5% and 107%.
For `COc1cc(O)c2c(c1)C(=O)c1cc(C)cc(O)c1C2=O` [PHYSCION], in that order: 111.9% and 112.8%.
Turning to `CNC(=O)Oc1ccc2c(c1)[C@]1(C)CCN(C)[C@@H]1N2C.O=C(O)c1ccccc1O` [PHYSOSTIGMINE SALICYLATE], the residual activity in data set [1] stood at 116%; in data set [2] it was 110.8%.
For `CNC(=O)Oc1ccc2c(c1)[C@]1(C)CCN(C)[C@@H]1N2C.CNC(=O)Oc1ccc2c(c1)[C@]1(C)CCN(C)[C@@H]1N2C.O=S(=O)(O)O` [PHYSOSTIGMINE SULFATE], in that order: 101.7% and 99.93%.
